From patent publication US11155550B2, “Histone deacetylase inhibitors and methods of use thereof” (Reaction Biology Corp., priority 2018, dated 2021)
Several values for one entry are separate records, joined by “and”; a condition that tells them apart may be missing. Identical values can stand only once. Like-named read-outs stand apart in the source and are kept apart here. Each block holds one compound with its values, some of them ahead of it.

Assays:
[1] = Mouse plasma PK after oral administration; type: in vivo
Protocol: (§1) In vivo PK (pharmacokinetics) studies were run at Scripps Florida DMPK Core facility. Mouse plasma PK data was obtained using Compound Example 4 (N-(2-amino-5-(thiophen-2-yl)phenyl)-6-(8-methyl-2-oxo-1-oxa-3,8-diazaspiro[4.5]decan-3-yl)nicotinamide)
(§2) Dose: 1 mg/kg intravenous (IV) and 7 mg/kg oral dosage (PO)
(§3) Formulation: 0.1 mg/mL IV and 1 mg/mL PO solution in 10/10/80 DMSO/Tween80/Water
(§4) Mice Info: Male C57 Bl/6J

[2] = Mouse plasma PK after IV administration; type: in vivo; details: for AUC(0-inf): read-out: AUCINF_obs (converted); for MRT inf: read-out: MRTINF_obs
Protocol: as §1, §2, §3, §4

[3] = Brain exposure experiments in mice; type: in vivo, mouse; details: 1 hour after exposure
Protocol: Brain exposure experiments were performed wherein mice were exposed to Compound Example 4 at an IV dosage of 1 mg/kg (Table 5).

Human HDAC10 = molecular target: T1, Human HDAC10 (Homo sapiens, UniProt Q969S8); assay: Biochemical HDAC enzymatic assay, HDAC10; details: Table 2; incubation time 10 min
T1 construct: Human HDAC10 (a.a. 1-481); GST tag (N); His tag (C); made in house; host or cells: baculovirus expression system
T1 sequence (Q969S8 1-481): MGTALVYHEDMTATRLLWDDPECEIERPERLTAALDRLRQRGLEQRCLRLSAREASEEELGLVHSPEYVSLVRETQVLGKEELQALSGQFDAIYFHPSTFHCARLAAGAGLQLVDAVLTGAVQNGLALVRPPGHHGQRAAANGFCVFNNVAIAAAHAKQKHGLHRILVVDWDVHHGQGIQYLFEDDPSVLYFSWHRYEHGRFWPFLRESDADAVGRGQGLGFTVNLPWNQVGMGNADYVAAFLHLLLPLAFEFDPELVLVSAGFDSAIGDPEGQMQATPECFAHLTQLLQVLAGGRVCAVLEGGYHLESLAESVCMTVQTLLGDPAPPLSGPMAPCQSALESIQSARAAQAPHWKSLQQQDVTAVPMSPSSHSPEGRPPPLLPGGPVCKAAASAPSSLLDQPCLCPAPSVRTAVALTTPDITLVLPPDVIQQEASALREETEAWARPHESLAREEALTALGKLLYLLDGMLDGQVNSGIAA
Protocol: Incubation time for HDAC1/2 is 120 min, and 10 min for other HDACs.
Human HDAC10 (a.a. 1-481), GenBank Accession No. NM_032019 with a N-terminal GST tag and a C-terminal His tag, MW=78 kDa, was expressed in a baculovirus expression system.
• I. Compound handling: Testing compounds were dissolved in 100% DMSO to a specific concentration. The serial dilution was conducted by epMotion 5070 in DMSO. • II. HDAC reaction buffer: 50 mM Tris-HCl, pH8.0, 137 mM NaCl, 2.7 mM KCl, and 1 mM MgCl2, Added fresh: 1 mg/ml BSA, 1% DMSO. • III. […] Delivered 2× Substrate Mixture (Fluorogenic HDAC Substrate and co-factor ([…] of Nicotinamide adenine dinucleotide (NAD^+) in all Sirt assay) in all reaction wells to initiate the reaction. Spin and shake. • d. Incubated for 1-2 hr. at 30° C. with seal. • e. Added Developer with Trichostatin A (or TMP269 or NAD^+) to stop the reaction and to generate fluorescent color. • f. Fluorescence was read (excitatory, 360; emission, 460) using the EnVision Multilabel Plate Reader (Perkin Elmer) • g. Endpoint reading was taken for analysis after the development reaches plateau. • V. Data Analysis: The percentages of enzyme activity (relative to DMSO controls) and IC50 values were calculated using the GraphPad Prism 4 program based on a sigmoidal dose-response equation. […]

[4] = mouse plasma, 7 mg/kg PO, Average
[5] = mouse plasma, 7 mg/kg PO, individual mice, 7 mg/kg
[6] = 1 mg/kg IV, individual mice, 1 mg/kg
[7] = male, C57 Bl/6J, mouse, plasma, iv, 1 mg/kg, 1 mg/kg IV, Average
[8] = male, C57 Bl/6J, mouse, plasma, iv, 1 mg/kg, 1 mg/kg IV, individual mice
[9] = IV 1 mg/kg, individual mice (7, 8, 9), 1 mg/kg

- AUC ([1]; male, C57 Bl/6J, 7 mg/kg, mouse plasma, oral dosing, read-out: AUC (area under curve)): ~16 µM·h
- AUC(0-t) ([1]; male, C57 Bl/6J, mouse, plasma, po, 7 mg/kg, mouse plasma, 7 mg/kg PO, Average): 7380 ng·h/mL and 15.9 µM·h
- AUC(0-inf) ([1]; male, C57 Bl/6J, mouse, plasma, po, 7 mg/kg, mouse plasma, 7 mg/kg PO, Average, read-out: AUCINF_obs (converted)): 7.86 µg·h/mL
- Cmax ([1]; male, C57 Bl/6J, mouse, plasma, po, 7 mg/kg, mouse plasma, 7 mg/kg PO, Average, read-out: Cmax): 2490 ng/mL and 5.39 µM
- half-life ([1]; male, C57 Bl/6J, mouse, plasma, po, 7 mg/kg, mouse plasma, 7 mg/kg PO, Average, read-out: T1/2 (converted)): 1.9 h
- half-life ([1]; male, C57 Bl/6J, mouse, plasma, po, 7 mg/kg, mouse plasma, 7 mg/kg PO, individual mice (Mouse-1 to Mouse-3), read-out: T1/2 (converted)): 1.65 h
- Cmax ([1]; male, C57 Bl/6J, mouse, plasma, po, 7 mg/kg, mouse plasma, 7 mg/kg PO, individual mice, read-out: Cmax): 3200 ng/mL and 6.91 µM
- half-life ([1]; male, C57 Bl/6J, mouse, plasma, po, 7 mg/kg, mouse plasma, oral dosing, read-out: half-life (converted)): 1.9 h
- bioavailability ([1]; male, C57 Bl/6J, plasma, 7 mg/kg, mouse, oral dosing, read-out: bioavailability (% F)): 31%
- bioavailability ([1]; male, C57 Bl/6J, plasma, mouse, 7 mg/kg PO vs 1 mg/kg IV, Average, read-out: % F): 31%
- Tmax ([1]; male, C57 Bl/6J, mouse plasma, 7 mg/kg PO, individual mice): 1 h
- AUC (% Extrap) [1, 4]: 6.54%
- Cl_obs [1, 4]: 0.9804 L/h/kg
- T1/2 ([1]; mouse plasma, 7 mg/kg PO, individual mice (Mouse-1 to Mouse-3), 7 mg/kg): 2.25 h and 1.78 h
- AUC (% Extrap) [1, 5]: 5.20% and 9.47% and 4.97%
- Cmax [1, 5]: 1930 ng/mL and 2350 ng/mL
- Cmax ([1]; mouse plasma, 7 mg/kg PO, individual mice, 7 mg/kg, read-out: Cmax): 4.17 µM and 5.08 µM
- AUC (% Extrap) ([2]; 1 mg/kg IV, Average): 1.08%
- Cl_obs ([2]; 1 mg/kg IV, Average): 0.296 L/h/kg
- Vss_obs ([2]; 1 mg/kg IV, Average): 0.54 L/kg
- T1/2 ([2]; 1 mg/kg IV, individual mice (Mouse-1 to Mouse-3), 1 mg/kg): 1.33 h and 1.28 h
- AUC (% Extrap) [2, 6]: 0.30% and 1.04% and 1.89%
- AUC last [2, 6]: 6.33 µM·h and 7.92 µM·h
- AUCINF_obs [2, 6]: 177722 ng·min/mL and 224191 ng·min/mL
- AUClast [2, 6]: 175879 ng·min/mL and 219951 ng·min/mL
- Cmax [2, 6]: 2490 ng/mL and 2040 ng/mL
- MRTINF_obs [2, 6]: 1.74 h and 1.97 h
- Vss_obs [2, 6]: 0.50 L/kg and 0.59 L/kg and 0.53 L/kg
- Cmax ([2]; 1 mg/kg IV, individual mice, 1 mg/kg, read-out: Cmax): 5.38 µM and 4.41 µM
- clearance (in words) ([2]; IV administration): low clearance
- volume (in words) ([2]; IV administration): low volume
- Tmax ([2]; male, C57 Bl/6J, 1 mg/kg IV, individual mice): 4.8 min
- AUC ([2]; male, C57 Bl/6J, 1 mg/kg, IV administration): ~7.3 µM·h
- AUC(0-t) [2, 7]: 3380 ng·h/mL and 7.3 µM·h
- AUC(0-inf) [2, 7]: 3.42 µg·h/mL
- Cmax ([2]; male, C57 Bl/6J, mouse, plasma, iv, 1 mg/kg, 1 mg/kg IV, Average, read-out: Cmax): 2030 ng/mL and 4.38 µM
- MRT inf [2, 7]: 1.82 h
- half-life ([2]; male, C57 Bl/6J, mouse, plasma, iv, 1 mg/kg, 1 mg/kg IV, Average, read-out: T1/2 (converted)): 1.16 h
- AUC(0-t) [2, 8]: 3540 ng·h/mL and 7.64 µM·h
- half-life ([2]; male, C57 Bl/6J, mouse, plasma, iv, 1 mg/kg, 1 mg/kg IV, individual mice (Mouse-1 to Mouse-3), read-out: T1/2 (converted)): 0.86 h
- AUC(0-inf) [2, 8]: 3.55 µg·h/mL
- Cmax ([2]; male, C57 Bl/6J, mouse, plasma, iv, 1 mg/kg, 1 mg/kg IV, individual mice, read-out: Cmax): 1560 ng/mL and 3.37 µM
- MRT inf [2, 8]: 1.76 h
- half-life ([2]; male, C57 Bl/6J, mouse, plasma, iv, 1 mg/kg, IV administration, read-out: half-life (T1/2) (converted)): 1.2 h
- brain penetration (in words) ([3]; IV 1 mg/kg): very low brain penetration
- Brain concentration [3, 9]: 0.0619 µg/mL and 0 µg/mL and 0.073 µg/mL
- concentration at 1 h ([3]; IV 1 mg/kg, individual mice (7, 8, 9), 1 mg/kg, read-out: Brain concentration): 0.13 µM and 0.00 µM and 0.16 µM
- concentration at 1 h ([3]; mouse, brain, iv, 1 mg/kg, Average, read-out: Brain concentration): 67.5 ng/mL and 150 nM
- concentration at 1 h ([3]; mouse, plasma, iv, 1 mg/kg, Average, read-out: Plasma concentration): 1440 ng/mL and 3.1 µM
- concentration at 1 h ([3]; mouse, plasma, iv, 1 mg/kg, individual mice (7, 8, 9), read-out: Plasma concentration): 1660 ng/mL and 3.59 µM
SMILES: CN1CCC2(CC1)CN(c1ccc(C(=O)Nc3cc(-c4cccs4)ccc3N)cn1)C(=O)O2 [Example 4, N-(2-amino-5-(thiophen-2-yl)phenyl)-6-(8-methyl-2-oxo-1-oxa-3,8-diazaspiro[4.5]decan-3-yl)nicotinamide]
- AUCINF_obs [1, 5]: 690882 ng·min/mL and 335315 ng·min/mL and 388640 ng·min/mL
- AUClast [1, 5]: 654948 min*ng/mL and 303573 min*ng/mL and 369340 min*ng/mL and 23.58 μM.hr and 10.93 μM.hr and 13.30 μM.hr
- Cl_obs [1, 5]: 0.6078 L/h/kg and 1.253 L/h/kg and 1.081 L/h/kg
- Cl_obs [2, 6]: 0.282 L/h/kg and 0.338 L/h/kg and 0.268 L/h/kg
- Plasma concentration [3, 9]: 1030 ng/mL and 2.22 μM and 1620 ng/mL and 3.50 μM

- IC50 (Human HDAC10): > 10 µM
SMILES: CN(C)C(=O)N1CCC2(CC1)c1ccccc1C(=O)N2Cc1ccc(C(=O)NO)cc1 [Compound Example 11, 2-(4-(hydroxycarbamoyl)benzyl)-N,N-dimethyl-3-oxospiro[isoindoline-1,4′-piperidine]-1′-carboxamide]

- IC50 (Human HDAC10): > 10 µM
SMILES: O=C(NO)c1ccc(CN2C(=O)c3ccccc3C23CCN(C2CC2)CC3)cc1 [Compound Example 12, 4-((1′-cyclopropyl-3-oxospiro[isoindoline-1,4′-piperidin]-2-yl)methyl)-N-hydroxybenzamide]
